Experimental data as given in US20100216779A1 (GLAXOSMITHKLINE LLC, priority 2007, published 2010).

Experiments:
COLO205 (colon) = assay: Inhibition of cell proliferation, CellTiter-Glo, COLO205; assay type: cell-based; settings: Homo sapiens, COLO 205, 72 h
Method: C. Inhibition of Cell Proliferation
Cell proliferation was measured by either CellTiter-Glo (measures cellular ATP level as a surrogate for total cell number) or by InCell analyzer (counts number of nuclei as a measure of cell number). For CellTiter-Glo assay, exponentially growing cell lines of different tumor origins, cultured in appropriate media containing 10% fetal bovine serum at 37° C. in a 5% CO2 incubator, were plated at low density (less than 2000 cells/well) in 96-well plates. […] Several wells were left untreated as a control. Seventy two hours post-treatment, cell numbers were determined using 50-100 ul per well of CellTiter-Glo (Promega #G7573). Plates were incubated at 37° C. for 30 minutes and the chemiluminescent signal was read on the Victor V or Envison 2100 reader. […]

[1] = target: T1, human IGF-1R (NIH-3T3 cells over expressing human IGF-1R) (Homo sapiens, UniProt P08069); assay: IGF-1R cellular autophosphorylation (DELFIA); assay type: cell-based; settings: IGF-1 stimulated
T1 construct: expressed in transfected cells; host or cells: NIH-3T3 (mouse fibroblasts)
T1 sequence (P08069 31-1367): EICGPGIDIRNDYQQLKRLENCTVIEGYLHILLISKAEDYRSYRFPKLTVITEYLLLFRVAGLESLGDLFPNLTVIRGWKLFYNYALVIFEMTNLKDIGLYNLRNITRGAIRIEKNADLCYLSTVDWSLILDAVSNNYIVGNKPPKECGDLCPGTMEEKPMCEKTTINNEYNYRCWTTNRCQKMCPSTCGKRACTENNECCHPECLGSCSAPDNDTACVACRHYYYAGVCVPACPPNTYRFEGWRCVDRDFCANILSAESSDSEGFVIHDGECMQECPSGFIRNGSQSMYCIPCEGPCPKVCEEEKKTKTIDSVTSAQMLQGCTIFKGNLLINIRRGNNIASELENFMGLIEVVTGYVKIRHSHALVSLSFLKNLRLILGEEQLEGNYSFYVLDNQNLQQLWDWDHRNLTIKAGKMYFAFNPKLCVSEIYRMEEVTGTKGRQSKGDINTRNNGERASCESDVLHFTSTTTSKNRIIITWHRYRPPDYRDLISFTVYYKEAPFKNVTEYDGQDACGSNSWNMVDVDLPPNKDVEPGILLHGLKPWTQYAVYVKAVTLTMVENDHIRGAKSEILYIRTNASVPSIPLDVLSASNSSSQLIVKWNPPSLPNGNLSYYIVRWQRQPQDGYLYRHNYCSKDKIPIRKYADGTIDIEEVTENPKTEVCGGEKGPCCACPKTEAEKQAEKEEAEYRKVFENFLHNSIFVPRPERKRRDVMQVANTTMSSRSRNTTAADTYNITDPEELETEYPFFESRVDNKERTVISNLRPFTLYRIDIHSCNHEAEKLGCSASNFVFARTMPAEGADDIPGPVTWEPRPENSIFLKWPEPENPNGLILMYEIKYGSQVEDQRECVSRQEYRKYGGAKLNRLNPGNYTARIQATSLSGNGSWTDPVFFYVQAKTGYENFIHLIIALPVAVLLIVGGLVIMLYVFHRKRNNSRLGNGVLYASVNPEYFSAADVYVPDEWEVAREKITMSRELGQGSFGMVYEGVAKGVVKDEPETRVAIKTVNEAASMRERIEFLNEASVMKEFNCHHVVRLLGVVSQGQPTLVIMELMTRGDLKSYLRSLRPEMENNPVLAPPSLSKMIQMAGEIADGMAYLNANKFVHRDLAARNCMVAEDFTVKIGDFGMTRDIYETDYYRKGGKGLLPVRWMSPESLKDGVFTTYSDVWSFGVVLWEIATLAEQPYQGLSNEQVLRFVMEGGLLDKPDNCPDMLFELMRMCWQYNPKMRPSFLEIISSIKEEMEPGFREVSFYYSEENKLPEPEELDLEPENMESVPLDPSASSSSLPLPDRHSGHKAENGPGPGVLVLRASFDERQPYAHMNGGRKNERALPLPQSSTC
Method: D. IGF-1R and IR Cellular Autophosphorylation (DELFIA)
NIH-3T3 cells over expressing human IGF-1R or IR were plated in 96-well plates (10,000 cells/well) in culture media containing 10% fetal bovine serum and incubated at 37° C. in a 5% CO2 incubator. Twenty four hours post-plating, cells were treated with different concentrations of test compounds ranging from 30 uM to 1.5 nM. Two hours after compound addition, cells were stimulated with either human IGF-1 (30 ng/mL) or insulin (3 ug/mL) for 15 minutes. Cell lysates are analyzed for phosphorylated receptors using dissociation enhanced lanthanide fluor-immuno assay (DELFIA) with anti-IGF-1R (MAB391, R&D Systems, Minneapolis, Minn.) or anti-IR[…](sc-711, Santa Cruz Biotechnology, Santa Cruz, Calif.) capture antibody and europium-labeled anti-pTyr antibody (Eu-N1 PT66, Perkin Elmer, Waltham, Mass.) for detection. The fluorescence signal for cells treated with compounds was expressed as percent relative to 100% stimulation (IGF-1 or insulin stimulated signal). […]

IC50 (COLO205 (colon)) [nM] | IC50 [1] [nM] | Structure (SMILES)
< 250 | < 100 | COc1cc(N2CCC(N(C)C)CC2)ccc1Nc1nccc(-c2c(-c3cccc(C(=O)Nc4c(F)cccc4F)c3)nc3ccccn23)n1 [Example 74, N-(2,6-difluorophenyl)-3-[3-(2-{[4-[4-(dimethylamino)-1-piperidinyl]-2-(methyloxy)phenyl]amino}-4-pyrimidinyl)imidazo[1,2-a]pyridin-2-yl]benzamide]
250 to 1000 | < 100 | COc1cc(N2CCC(N3CC[C@H](F)C3)CC2)ccc1Nc1nccc(-c2c(-c3cccc(C(=O)Nc4c(F)cccc4F)c3)nc3ccccn23)n1 [Example 77, N-(2,6-difluorophenyl)-3-[3-(2-{[4-{4-[(3S)-3-fluoro-1-pyrrolidinyl]-1-piperidinyl}-2-(methyloxy)phenyl]amino}-4-pyrimidinyl)imidazo[1,2-a]pyridin-2-yl]benzamide]
250 to 1000 | 100 to 500 | COc1cc(CCN2CCCCC2)c(F)cc1Nc1nccc(-c2c(-c3cccc(C(=O)Nc4c(F)cc(F)cc4F)c3)nc3ccccn23)n1 [Example 129, 3-{3-[2-({5-fluoro-2-(methyloxy)-4-[2-(1-piperidinyl)ethyl]phenyl}amino)-4-pyrimidinyl]imidazo[1,2-a]pyridin-2-yl}-N-(2,4,6-trifluorophenyl)benzamide]
250 to 1000 | < 100 | COc1cc(N2CCOCC2)ccc1Nc1nccc(-c2c(-c3cccc(C(=O)Nc4c(F)cccc4F)c3)nc3ccccn23)n1 [Example 71, N-(2,6-difluorophenyl)-3-[3-(2-{[2-(methyloxy)-4-(4-morpholinyl)phenyl]amino}-4-pyrimidinyl)imidazo[1,2-a]pyridin-2-yl]benzamide]
250 to 1000 | < 100 | COc1cc(N2CCN(C(C)C)CC2)ccc1Nc1nccc(-c2c(-c3cccc(C(=O)Nc4c(F)cccc4F)c3)nc3ccccn23)n1 [Example 175, N-(2,6-difluorophenyl)-3-[3-(2-{[4-[4-(1-methylethyl)-1-piperazinyl]-2-(methyloxy)phenyl]amino}-4-pyrimidinyl)imidazo[1,2-a]pyridin-2-yl]benzamide]
250 to 1000 | < 100 | COc1cc(N2CCC(N3CCCC(F)(F)C3)CC2)ccc1Nc1nccc(-c2c(-c3cccc(C(=O)Nc4c(F)cccc4F)c3)nc3ccccn23)n1 [Example 75, 3-[3-(2-{[4-(3,3-difluoro-1,4′-bipiperidin-1′-yl)-2-(methyloxy)phenyl]amino]-4-pyrimidinyl)imidazo[1,2-a]pyridin-2-yl]-N-(2,6-difluorophenyl)benzamide]
250 to 1000 | 100 to 500 | COc1ccc(N2CCC(N3CCCCC3)CC2)cc1Nc1nccc(-c2c(-c3cccc(C(=O)Nc4c(F)cccc4F)c3)nc3ccccn23)n1 [Example 30, 3-[3-(2-{[5-(1,4′-bipiperidin-1′-yl)-2-(methyloxy)phenyl]amino}-4-pyrimidinyl)imidazo[1,2-a]pyridin-2-yl]-N-(2,6-difluorophenyl)benzamide]
250 to 1000 | < 100 | Cc1c(CN2CCN(C)CC2)cccc1Nc1nccc(-c2c(-c3cccc(C(=O)Nc4c(F)cccc4F)c3)nc3ccccn23)n1 [Example 24]
– | 100 to 500 | COc1cc(-c2nnc(CN3CCCC3)o2)ccc1Nc1nccc(-c2c(-c3ccc(OC)c(C(=O)Nc4c(F)cccc4F)c3)nc3ccccn23)n1 [Example 28, N-(2,6-difluorophenyl)-2-(methyloxy)-5-{3-[2-({2-(methyloxy)-4-[5-(1-pyrrolidinylmethyl)-1,3,4-oxadiazol-2-yl]phenyl]amino)-4-pyrimidinyl}imidazo[1,2-a]pyridin-2-yl}benzamide]
– | 100 to 500 | COc1cc(-c2nnc(CN3CCCC3)o2)ccc1Nc1nccc(-c2c(-c3cccc(C(=O)Nc4c(F)cccc4F)c3)nc3ccccn23)n1 [Example 29, N-(2,6-difluorophenyl)-3-{3-[2-({2-(methyloxy)-4-[5-(1-pyrrolidinylmethyl)-1,3,4-oxadiazol-2-yl]phenyl}amino)-4-pyrimidinyl]imidazo[1,2-a]pyridin-2-yl}benzamide]
250 to 1000 | 100 to 500 | COc1ccn2c(-c3ccnc(Nc4cccc(OCCN(C)C)c4)n3)c(-c3ccc(OC)c(C(=O)Nc4c(F)cccc4F)c3)nc2c1 [Example 3, N-(2,6-difluorophenyl)-5-[3-{2-[(3-{[2-(dimethylamino)ethyl]oxy}phenyl)amino]-4-pyrimidinyl}-7-(methyloxy)imidazo[1,2-a]pyridin-2-yl]-2-(methyloxy)benzamide]
– | 100 to 500 | CN(C)CCOc1cccc(Nc2nccc(-c3c(-c4cccc(C(=O)Nc5cc(C(F)(F)F)ccc5F)c4)nc4ccccn34)n2)c1 [Example 10, 3-(3-{2-[(3-{[2-(dimethylamino)ethyl]oxy}phenyl)amino]-4-pyrimidinyl}imidazo[1,2-a]pyridin-2-yl)-N-[2-fluoro-5-(trifluoromethyl)phenyl]benzamide]
250 to 1000 | < 100 | COc1ccc(N2CCC(N3CCCCC3)CC2)cc1Nc1nccc(-c2c(-c3ccc(OC)c(C(=O)Nc4c(F)cccc4F)c3)nc3ccccn23)n1 [Example 31, 5-[3-(2-{[5-(1,4′-bipiperidin-1-yl)-2-(methyloxy)phenyl]amino}-4-pyrimidinyl)imidazo[1,2-a]pyridin-2-yl]-N-(2,6-difluorophenyl)-2-(methyloxy)benzamide]
250 to 1000 | < 100 | COc1cc(N2CCC(N3CCOCC3)CC2)ccc1Nc1nccc(-c2c(-c3cccc(C(=O)Nc4c(F)cccc4F)c3)nc3ccccn23)n1 [Example 38, N-(2,6-difluorophenyl)-3-{3-[2-({2-(methyloxy)-4-[4-(4-morpholinyl)-1-piperidinyl]phenyl}amino)-4-pyrimidinyl]imidazo[1,2-a]pyridin-2-yl}benzamide]
250 to 1000 | – | COc1cc(N2CCC(N3CCN(S(C)(=O)=O)CC3)CC2)ccc1Nc1nccc(-c2c(-c3ccc(OC)c(C(=O)Nc4c(F)cccc4F)c3)nc3ccccn23)n1 [Example 69]
– | 100 to 500 | CN(C)CCOc1cccc(Nc2nccc(-c3c(-c4cccc(C(=O)Nc5cc(Cl)ccc5F)c4)nc4ccccn34)n2)c1 [Example 9, N-(5-chloro-2-fluorophenyl)-3-(3-{2-[(3-{[2-(dimethylamino)ethyl]oxy}phenyl)amino]-4-pyrimidinyl}imidazo[1,2-a]pyridin-2-yl)benzamide]
< 250 | 100 to 500 | CN(C)CCOc1cccc(Nc2nccc(-c3c(-c4cccc(C(=O)Nc5c(F)cccc5F)c4)nc4ccccn34)n2)c1 [Example 20, N-(2,6-difluorophenyl)-3-(3-{2-[(3-{[2-(dimethylamino)ethyl]oxy}phenyl)amino]-4-pyrimidinyl}imidazo[1,2-a]pyridin-2-yl)benzamide]
250 to 1000 | < 100 | COc1cc(N2CCC(N3CC[C@@H](F)C3)CC2)ccc1Nc1nccc(-c2c(-c3cccc(C(=O)Nc4c(F)cccc4F)c3)nc3ccccn23)n1 [Example 76, N-(2,6-difluorophenyl)-3-[3-(2-{[4-{4-[(3R)-3-fluoro-1-pyrrolidinyl]-1-piperidinyl}-2-(methyloxy)phenyl]amino}-4-pyrimidinyl)imidazo[1,2-a]pyridin-2-yl]benzamide]
250 to 1000 | 100 to 500 | COc1cc(CCN2CCOCC2)c(F)cc1Nc1nccc(-c2c(-c3ccc(OC)c(C(=O)Nc4c(F)cccc4F)c3)nc3ccccn23)n1 [Example 130, N-(2,6-difluorophenyl)-5-{3-[2-({5-fluoro-2-(methyloxy)-4-[2-(4-morpholinyl)ethyl]phenyl}-amino)-4-pyrimidinyl]imidazo[1,2-a]pyridin-2-yl}-2-(methyloxy)benzamide]
– | > 500 | Cc1ccn2c(-c3ccnc(Nc4cccc(OCCN(C)C)c4)n3)c(-c3cccc(C(=O)Nc4c(F)cccc4F)c3)nc2c1 [Example 14, N-(2,6-difluorophenyl)-3-(3-{2-[(3-{[2-(dimethylamino)ethyl]oxy}phenyl)amino]-4-pyrimidinyl}-7-methylimidazo[1,2-a]pyridin-2-yl)benzamide]
– | < 100 | CN(C)CCOc1cccc(Nc2nccc(-c3c(-c4cccc(C(=O)Nc5ccc(F)cc5F)c4)nc4ccccn34)n2)c1 [Example 13]

Structure (SMILES) | IC50 (COLO205 (colon)) [nM] | IC50 [1] [nM]
COc1cc(CCN2CCCCC2)c(F)cc1Nc1nccc(-c2c(-c3ccc(OC)c(C(=O)Nc4c(F)cccc4F)c3)nc3ccccn23)n1 [Example 127, N-(2,6-difluorophenyl)-5-{3-[2-({5-fluoro-2-(methyloxy)-4-[2-(1-piperidinyl)ethyl]phenyl}-amino)-4-pyrimidinyl}imidazo[1,2-a]pyridin-2-yl}-2-(methyloxy)benzamide] | 250 to 1000 | < 100
